Assay results: US20210309978A1, “POLYNUCLEOTIDE SEQUENCE ENCODING A LOCAL SOURCED NOVEL ESTERASE” (ISTANBUL TEKNIK UNIVERSITESI, priority 2018, published 2021)

Experiments:
esterase enzyme [1] = assay: Effect of metals on enzyme activity; format: biochemical, microflora of Ac1göl (Aci Lake); settings: the enzyme of the invention in presence of metal ion
[2] = system: new true lipase isolated through metagenomic approach; settings: literature enzyme in presence of metal ion; cited from earlier work
[3] = system: heavy metal-resistant, thermophilic esterase from a Red Sea Brine Pool; settings: literature enzyme in presence of metal ion; cited from earlier work
[4] = system: thermophilic and halophilic esterase from Janibacter sp. R02; settings: literature enzyme in presence of metal ion; cited from earlier work
[5] = system: Salt-Tolerant Esterase from the Deep-Sea Sediment of the South China Sea; settings: literature enzyme in presence of metal ion; cited from earlier work
esterase enzyme [6] = assay: Effect of solutions (solvents) on enzyme activity; format: biochemical, microflora of Ac1göl (Aci Lake); settings: for Effect of solutions on activity, Activity (%): 10% solution added into the reaction
Protocol: (§1) 6. […] The final concentration of the enzyme and substrate have been 1 μM and 1 mM respectively and absorbance measurements have been taken at 410 nm. The activity has been calculated by means of the below formula and one unit of activity has been defined as the enzyme amount which produces 1 μmol product in 1 minute.
(§2) Activity (U/L)=[(ΔAbs/t)/(ε*d)]*106*Vt/Vs • ΔAbs=Absorbance change; t=time (minute); ε=extinction coefficient (M−1 cm−1); d=light path (cm); Vt=total reaction volume; Vs=enzyme volume used in reaction.
(§3) Additionally, the effect of different solutions (hexane, chloroform, acetone, dimethyl formamide (DMF), dimethyl sulphoxide (DMSO), 2-propanol, butanol, 1-propanol, ethanol, methanol and glycerol) on the activity and stability of the enzyme have been measured. In the activity tests, 10% solution has been added into the reaction and in the stability tests the enzyme has been incubated for 24 hours in a buffer solution containing 15% and 30% solution.

esterase enzyme [7] = assay: Effect of solutions (solvents) on enzyme stability (24 hours incubation); format: biochemical, microflora of Ac1göl (Aci Lake); settings: for Effect of solutions on stability, Activity (%) 15% Solution: enzyme incubated 24 hours in buffer containing 15% solution; for Effect of solutions on stability, Activity (%) 30% Solution: enzyme incubated 24 hours in buffer containing 30% solution
Protocol: as §1, §2, §3

| Compound | Metal tolerance, This study (esterase enzyme [1]) | Metal tolerance, Glogauer et al, 2011 [2] | Metal tolerance, Mohamed et al, 2013 [3] | Metal tolerance, Castilla et al, 2017 [4] | Metal tolerance, Zhang et al, 2017 [5] | Effect of solutions on activity, Activity (%) (esterase enzyme [6]) | Effect of solutions on stability, Activity (%) 15% Solution (esterase enzyme [7]) | Effect of solutions on stability, Activity (%) 30% Solution (esterase enzyme [7]) | increase of activity (esterase enzyme [6]; in the presence of 10% solvents) |
| --- | --- | --- | --- | --- | --- | --- | --- | --- | --- |
| [Ag+] [Ag^+] | 32 | 8 |  |  |  |  |  |  |  |
| [Al+3] [Al^3+] | 91 | 45 |  |  |  |  |  |  |  |
| [Ca+2] [Ca^2+] | 130 | 73 | 95 | 110 | 95 |  |  |  |  |
| [Co+2] [Co^2+] | 113 | 54 | 104 | 50 | 85 |  |  |  |  |
| [Cu+2] [Cu^2+] | 118 |  | 95 | 60 | 82 |  |  |  |  |
| CCO [Ethanol, ethanol] |  |  |  |  |  | 45.1 ± 0.3% | 105.9 ± 4.7% | 98.2 ± 0.5% |  |
| [Fe+2] [Fe^2+] | 116 | 33 |  | 55 | 85 |  |  |  |  |
| OCC(O)CO [Glycerol, glycerol] |  |  |  |  |  | 104.2 ± 6.2% | 113.3 ± 1.8% | 106.9 ± 3.1% | 4% |
| CCCCCC [Hexane, hexane] |  |  |  |  |  | 22.6 ± 4.9% | 113.6 ± 8.5% | 100.2 ± 4.9% |  |
